The test system of this assay is HCT-116 cells stably transfected with a Luciferase reporter gene under the control of HIF-responsive element. As to the kind of experiment: HIF-Luciferase Assay. The assay is classed as cell-based. To be noted: Homo sapiens, HCT-116, HIF-Luciferase Assay, HCT-116 reporter cells, overnight at 1% oxygen. Here is the method:
HCT-116 cells stably transfected with a Luciferase reporter gene under the control of HIF-responsive element were plated in white 96- or 384-well plates at 30,000 or 5,000 cells/well, respectively, in 50 μL/well media (RPMI with 10% fetal bovine serum and 100 μg/mL Hygromycin). Cells were incubated overnight at 37° C. in a humidified incubator containing 5% CO2 under normal oxygen. The next day test compounds were added to the wells at various concentrations (0-10 μM, 0.1% final DMSO concentration) and placed in a hypoxic chamber overnight at 1% oxygen. Following the exposure to hypoxic conditions, 50 μL/well of Bright Glo reagent (Promega, Wisconsin, USA) was added to the wells and luminescence was measured after 5 min. Cells incubated under normal oxygen levels were used as background control. […] Compounds that have IC50 values between 1 μM and 10 μM include those of Examples 8, 16, 38, 39, 40, 41, 42, 43, 47, 48, 53, 54, 56, 57, 66, 69, and 72.

Turning to `Cc1ccc(Cn2nc(-c3nc(-c4ccc(C(C)(C)C)cc4)no3)cc2C)cc1` [Example 4, 3-(4-tert-butylphenyl)-5-[5-methyl-1-(4-methylbenzyl)-1H-pyrazol-3-yl]-1,2,4-oxadiazole], the IC50 by setting is: (individual values) 5 nM; (potency groups) at most 1000 nM. `Cc1ccc(Cn2nc(-c3nc4ccc(-c5ccccc5Cl)cc4[nH]3)cc2C)cc1` [Example 62, 6-(2-chlorophenyl)-2-[5-methyl-1-(4-methylbenzyl)-1H-pyrazol-3-yl]-1H-benzimidazole]: the IC50 (potency groups) was at most 1000 nM. For the compound `Cc1ccc(Cn2nc(-c3nc4ccc(N5CCCCC5)cc4[nH]3)cc2C)cc1` [Example 49, 2-[5-methyl-1-(4-methylbenzyl)-1H-pyrazol-3-yl]-6-piperidin-1-yl-1H-benzimidazole], the IC50 (potency groups) was at most 1000 nM. Where the note is “potency groups”, `Cc1ccc(Cn2nc(-c3nc4ccc(N5CCOCC5)cc4[nH]3)cc2C)cc1` [Example 53, 2-[5-methyl-1-(4-methylbenzyl)-1H-pyrazol-3-yl]-6-morpholin-4-yl-1H-benzimidazole] yielded an IC50 of 1000 to 10000 nM. `Cc1ccc(Cn2nc(-c3nc(-c4ccc(OCC(F)(F)F)cc4)no3)cc2C)cc1` [Example 18, 5-[5-Methyl-1-(4-methylbenzyl)-1H-pyrazol-3-yl]-3-[4-(2,2,2-trifluoroethoxy)phenyl]-1,2,4-oxadiazole]: 30 nM corresponded to half-maximal inhibition (individual values) (IC50) and the concentration for half-maximal inhibition (IC50) (potency groups) is at most 1000 nM. Under “potency groups”, `Cc1ccc(Cn2nc(-c3nc4ccc(OC(F)(F)F)cc4[nH]3)cc2C)cc1` [Example 58, 2-[5-methyl-1-(4-methylbenzyl)-1H-pyrazol-3-yl]-6-(trifluoromethoxy)-1H-benzimidazole] came in with an IC50 of at most 1000 nM. In turn, `Cc1ccc(Cn2nc(-c3nc4ccc(C)cc4[nH]3)cc2C)cc1` [Example 39, 6-methyl-2-[5-methyl-1-(4-methylbenzyl)-1H-pyrazol-3-yl]-1H-benzimidazole] had a 50% inhibitory concentration (IC50) (potency groups) of 1000 to 10000 nM.

For the origin of these results see patent US8796253B2, “Heteroaryl substituted pyrazole derivatives useful for treating hyper-proliferative disorders and diseases associated with angiogenesis” (Bayer Intellectual Property GmbH, priority 2007, dated 2014).
